# Results taken from patent publication US10100076B2, “Modified nucleosides for the treatment of viral infections and abnormal cellular proliferation” (priority 2000, dated 2018).
# Columns and labels:
# HCV replicon = HCV replicon system in Huh7 cells, replicon RNA by Q-RT-PCR (HCV ΔCt, ΔΔCt); format: cell-based, hepatitis C virus; details: for Ave. ΔΔCt: HCV RNA ΔCt minus rRNA ΔCt; for Ave. HCV RNA ΔCt: HCV replicon in Huh7 cells; for average ΔΔCt: HCV RNA ΔCt minus rDNA ΔCt
# [1] = test system: rRNA (host RNA polymerase I product); assay: rRNA ΔCt in Huh7 replicon cells (effect on host RNA polymerases); details: Table 24, average of n
# Description: In a typical setting, a compound might reduce both the host RNA polymerase activity and the replicon-encoded polymerase activity. Therefore, quantification of rRNA (or any other host RNA polymerase I product) or beta-actin mRNA (or any other host RNA polymerase II) and comparison with RNA levels of the no-drug control is a relative measurement of the effect of the test compound on host RNA polymerases.
# With the availability of both the HCV ΔCt data and the rRNA ΔCt, a specificity parameter can be introduced. This parameter is obtained by subtracting both ΔCt values from each other.
# rDNA (host DNA) = assay: rDNA ΔCt in Huh7 replicon cells (effect on cellular DNA polymerases); details: Table 25, average of N
# Description: In another typical setting, a compound might reduce the host RNA polymerase activity, but not the host DNA polymerase activity. Therefore, quantification of rDNA or beta-actin DNA (or any other host DNA fragment) and comparison with DNA levels of the no-drug control is a relative measurement of the inhibitory effect of the test compound on cellular DNA polymerases.
# With the availability of both the HCV ΔCt data and the rDNA ΔCt, a specificity parameter can be introduced. This parameter is obtained by subtracting both ΔCt values from each other.
# Also: test concentration or dose not given here.
SMILES,Ave. ΔΔCt (HCV replicon; Table 24),"Ave. HCV RNA ΔCt (HCV replicon; Table 24, average of n)",average ΔΔCt (HCV replicon; Table 25),"Ave. HCV RNA ΔCt (HCV replicon; Table 25, average of N)",Ave. rRNA ΔCt [1],Ave. rDNA ΔCt (rDNA (host DNA))
O=c1nc(NO)c(I)cn1[C@@H]1O[C@H](CO)[C@@H](O)[C@H]1O [β-D-BV],1.22,1.88,1.65,1.88,0.65,0.31
Nc1nc(Cl)c2ncn([C@H]3CS[C@@H](CO)O3)c2n1 [β-D-KB],1.10,3.61,3.81,3.81,2.52,0.00
Nc1nc(SSc2nc(N)nc3c2ncn3[C@@H]2O[C@H](CO)[C@@H](O)[C@H]2O)c2ncn([C@@H]3O[C@H](CO)[C@@H](O)[C@H]3O)c2n1 [β-D-QA],−0.89,2.91,2.55,4.85,3.81,2.30
Nc1nc(F)nc2c1ncn2[C@@H]1C=C[C@H](CO)O1 [β-L-FC],0.42,5.55,3.41,4.41,5.13,1.00
Nc1ncnc2c([C@@H]3O[C@H](CO)[C@@H](O)[C@H]3O)cnn12 [β-D-UA],1.3,2.91,2.41,2.91,1.61,0.50
Nc1ccn([C@@H]2O[C@H](CO)[C@H](Br)[C@H]2O)c(=O)n1 [β-D-AI],0.48,2.93,4.55,3.76,2.43,−0.96
Nc1ccn([C@@H]2O[C@H](CO)[C@@H](O)[C@@H]2Cl)c(=O)n1 [β-D-AN],1.22,3.33,1.88,3.86,2.11,2.53
OC[C@@H]1C[C@H](F)[C@H](n2cnc3c(Cl)ncnc32)O1 [β-D-DH],1.21,4.13,3.25,4.14,2.91,0.89
Nc1nc(=O)n([C@@H]2C=C(CO)[C@@H](O)[C@H]2O)cc1F [β-D-HB],1.30,2.94,0.40,1.90,1.65,1.19
O=C(Nc1nc(=O)n([C@H]2C=C[C@@H](CO)O2)cc1F)c1ccccc1[N+](=O)[O-] [β-D-EB],1.90,3.33,2.37,3.33,1.42,0.96
O=c1nc2n(cc1F)[C@@H]1O[C@H](CO2)[C@@H](O)[C@H]1O [β-D-LA],0.89,3.85,1.98,3.54,4.10,1.56
Nc1ccn([C@@H]2O[C@H](CO)[C@@H](O)[C@@H]2O)c(=O)n1 [β-D-AA],1.42,3.83,1.88,3.83,2.41,2.53
Cc1ccc(S(=O)(=O)O[C@@H]2[C@@H](O)[C@H](n3ccc(N)nc3=O)O[C@@H]2CO)cc1 [β-D-AL],0.36,3.08,0.61,3.18,2.72,2.56
